Results from US20230055705A1, “SUBSTITUTED THIOPHENE CARBOXAMIDES AND DERIVATIVES THEREOF” (Bayer Aktiengesellschaft, priority 2019, published 2023).

Assays:
[1] = test system: Pseudomonas syringae pv. tomato; assay: Pseudomonas syringae pv. tomato in vitro cell test; assay type: cell-based; conditions: 20 ppm of active ingredient, 24 h incubation, read-out: efficacy (inhibition of bacteria growth)
How it was run: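 Bacterial suspension pre-cultured and diluted to set OD in LB broth, incubated 24 h with compounds (DMSO, 1% final). Growth read spectrometrically; inhibition calculated from absorbance versus untreated control wells.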

[2] = test system: Pseudomonas syringae pv. tomato; assay: In vivo preventive test on Pseudomonas syringae pv. tomato (bacterial speck on tomato); conditions: evaluated 5 or 6 days after inoculation, read-out: efficacy; for pest or weed control at 31 ppm: 31 ppm of active ingredient; for pest or weed control at 500 ppm: 500 ppm of active ingredient
How it was run: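 Young tomato plants sprayed with compound in acetone/DMSO/Tween diluted in water; solvent-only controls. Inoculated 72 h later by spraying leaves with bacterial suspension; 4 days saturated atmosphere then 1–2 days at 70–80% RH, 22 °C day/20 °C night. Efficacy scored 5–6 days post-inoculation, 0% = control, 100% = no disease.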

[3] = test system: Xanthomonas campestris pv. campestris; assay: In vivo preventive test on Xanthomonas campestris pv. campestris (black rot on cabbage); conditions: evaluated 8 or 10 days after inoculation, read-out: efficacy; for pest or weed control at 31 ppm: 31 ppm of active ingredient; for pest or weed control at 125 ppm: 125 ppm of active ingredient
How it was run: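 Young cabbage plants sprayed with compound in acetone/DMSO/Tween diluted in water; solvent-only controls. Leaves sprayed with bacterial suspension 72 h later, then held 8 or 10 days at 27° C and 95% relative humidity. Efficacy scored 8 or 10 days post-inoculation, 0% matching controls, 100% meaning no disease.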

| Structure (SMILES) | inhibition at 20 ppm [1] [%] | pest or weed control at 31 ppm [2] [%] | pest or weed control at 500 ppm [2] [%] | pest or weed control at 31 ppm [3] [%] | pest or weed control at 125 ppm [3] [%] |
| --- | --- | --- | --- | --- | --- |
| C[C@H](NC(=O)c1sc(Cl)c(Cl)c1Cl)C(N)=O [I.119] | ≤ 30 | 70 to 79 | 90 to 100 |  |  |
| COC(=O)[C@H](CCCNC(=N)N)NC(=O)c1sc(Cl)c(Cl)c1Cl [I.008] | ≤ 30 |  | 70 to 79 | 80 to 89 |  |
| O=C(O)CNC(=S)c1sc(Cl)c(Cl)c1Cl [I.022, N-[(3,4,5-trichloro-2-thienyl)carbonothioyl]glycine] | ≤ 30 |  | 90 to 100 |  |  |
| COC(=O)[C@H](CC(N)=O)NC(=O)c1sc(Cl)c(Cl)c1Cl [I.015] | ≤ 30 | 80 to 89 |  | 90 to 100 |  |
| CCOC(=O)C(C#N)NC(=O)c1sc(Cl)c(Cl)c1Cl (stereo not drawn) [I.009] | ≤ 30 |  | 90 to 100 | 90 to 100 | 90 to 100 |
| C[C@H](NC(=S)c1sc(Cl)c(Cl)c1Cl)C(=O)O [I.113] | ≤ 30 |  |  | 80 to 89 |  |
| COC(=O)C[C@H](NC(=O)c1sc(Cl)c(Cl)c1Cl)C(=O)OC [I.144] | ≤ 30 | 80 to 89 |  | 80 to 89 |  |
| CCOC(=O)C(CC(N)=O)NC(=O)c1sc(Cl)c(Cl)c1Cl (stereo not drawn) [I.046] | ≤ 30 |  |  | 90 to 100 | 90 to 100 |
| COC(=O)[C@H](CSC(=O)N(C)C)NC(=O)c1sc(Cl)c(Cl)c1Cl [I.142] | ≤ 30 | 70 to 79 |  | 80 to 89 | 90 to 100 |
| CCOC(=O)C(CC(F)(F)F)NC(=O)c1sc(Cl)c(Cl)c1Cl (stereo not drawn) [I.048] | ≤ 30 |  | 70 to 79 |  | 90 to 100 |
| COC(=O)C(CC(F)F)NC(=O)c1sc(Cl)c(Cl)c1Cl (stereo not drawn) [I.016] | ≤ 30 | 70 to 79 | 90 to 100 | 90 to 100 |  |
| COC(=O)C(Cc1c[nH]cn1)NC(=O)c1sc(Cl)c(Cl)c1Cl (stereo not drawn) [I.012] | ≤ 30 | ≥ 70 |  | 80 to 89 |  |
| COC(=O)CNC(=S)c1sc(Cl)c(Cl)c1Cl [I.038, methyl N-[(3,4,5-trichloro-2-thienyl)carbonothioyl]glycinate] | ≤ 30 |  | 70 to 79 | 80 to 89 | 80 to 89 |
| CCOC(=O)C(CSC)NC(=O)c1sc(Cl)c(Cl)c1Cl (stereo not drawn) [I.143] | ≤ 30 | 90 to 100 |  | 90 to 100 | 80 to 89 |
